Assay results: patent US8304377B2, “Sulfonate surfactants and methods of preparation and use” (Dow Global Technologies LLC, priority 2009, dated 2012)

What was measured:
Desmondesmus subspicatus = assay: Fresh water algal growth inhibition test (OECD 201); assay type: cell-based; details: growth rate, 0-3; read-out: Fresh Water algal growth inhibition test with Desmondesmus subspicatus ErC50/0-3
Excerpt: The study procedures and test methods are based on the recommendations of the following guidelines: Organization for Economic Cooperation and Development (OECD): OECD Guidelines for the Testing of Chemicals, “Freshwater Alga and Cyanobacteria, Growth Inhibition Test”, Procedure 201, adopted 23 Mar. 2006; European Economic Community (EEC): Commission directive 92/69/EEC of 31 Jul. 1992, Methods for the determination of ecotoxicity, C.3., “Algal Inhibition Test”. Data from the aquatic toxicity tests of the isolated and purified C12 mono and disulfonates from Example 11 is shown in Table 3.

Daphna magna = assay: 48-hour acute toxicity to Daphnia; assay type: in vivo
Excerpt: The study procedures and test methods are based on the recommendations of the following guidelines:
Data from the aquatic toxicity tests of the isolated and purified C12 mono and disulfonates from Example 11 is shown in Table 3.

[1] = Solubility evaluation, visual assessment in caustic, calcium chloride and cold water; assay type: physicochemical
Excerpt: The final concentrations are: 0.1 wt % for surfactant, 10 wt % for NaOH.
The final concentrations are: 0.1 wt % for surfactant, 1 M for CaCl2.
, C12, and C14 sulfonate compositions of the invention, as produced in Examples 5, 7, and 8, in 10% sodium hydroxide, 1M calcium chloride, […] 2A1 are shown in Table 2 below, and indicate that these new materials have desirable characteristics.

Visual assessment, 0.1 wt % surfactant in 1M CaCl2 ([1]; 0.1 wt % surfactant, 1 M CaCl2)	Visual assessment, 0.1 wt % surfactant in 10% NaOH ([1]; 0.1 wt % surfactant, 10 wt % NaOH)	Visual assessment, 1 wt % surfactant at 7° C. ([1]; 1 wt % surfactant, 7° C.)	Compound	EC50 (Desmondesmus subspicatus) [µg/mL]	EC50 (Daphna magna) [µg/mL]
–	–	–	CCCCCCCCCCCCOC(CS(=O)(=O)[O-])CS(=O)(=O)[O-].[Na+].[Na+] [sodium 2-(dodecanyloxy)propane-1,3-disulfonate]	> 100	> 100
cloudy	cloudy	cloudy	linear alkylbenzene sulfonate [LAS]	–	–
